Laboratory results published in patent US20140356361A1, “REPEATED ADMINISTRATION OF NON-IMMUNOSUPPRESSIVE ANTIGEN SPECIFIC IMMUNOTHERAPEUTICS” (Selecta Biosciences, Inc., priority 2013, published 2014).

Assays:
Format in all cases: in vivo, C57BL/6 mice
chicken Ovalbumin (pOVA) [1] = test: Anti-OVA antibody response, MTX given with pOVA (Example 17); conditions: 200 μg MTX i.p. days 1-3, 7-9, 14-16; 5 weekly i.v. injections of 25 μg pOVA; FIG. 2
Method: (§1) C57BL/6 age-matched (5-6 weeks) female mice were injected 5 times intravenously in the tail vein with weekly injections of 25 μg of an immunogenic, particulate form of chicken Ovalbumin (pOVA). One group of animals received 3 intraperitoneal injections of 200 μg of MTX along with the 3 first antigen injections the same day and the 2 following days. The untreated group received only antigen whereas the treated group received 9 injections total of MTX i.p. (days 1-3, 7-9, 14-16). On the 4th and 5th injection days all animals received 20 μg of keyhole limpet hemocyanine (KLH) subcutaneously in the hind limbs admixed to 2 μg of CpG in addition to the i.v. injection of pOVA.
(§2) The anti-KLH and anti-OVA antibody responses were monitored in the blood in these animals at different time points.

[2] = tested on: keyhole limpet hemocyanine (KLH); test: Anti-KLH antibody response, KLH+CpG given after MTX treatment (Example 17); conditions: 20 μg KLH + 2 μg CpG s.c. injected after the MTX treatments (from d21); FIG. 2
Method: as §1, §2

[3] = tested on: keyhole limpet hemocyanin (KLH); test: Anti-KLH IgG titers, MTX given with KLH i.v. (Example 18); conditions: MTX i.p. days 1-3, 7-9, 14-16; 200 μg KLH i.v. weekly, 5 injections; FIG. 3
Method: (§3) In order to test whether multiple injections of MTX can lead to the establishment of immunological tolerance, C57BL/6 age-matched (5-6 weeks) female mice were injected intravenously in the tail vein with weekly injections of 200 μg of keyhole limpet hemocyanin (KLH) and subcutaneously in the hind limbs with 25 μg of a particulate form of chicken Ovalbumin (pOVA) admixed to 2 μg of CpG oligodeoxynucleotides (ODN). With the first three antigen injections, a group of animals received 3 intraperitoneal injections of MTX on the same day and the following 2 days. All animals received 5 injections of antigen (d0, 7, 14, 21 and 28) and one group received 9 additional injections of MTX i.p. (days 1-3, 7-9, 14-16).
(§4) The anti-KLH and anti-OVA responses were monitored in the blood in these animals at different time points.

chicken Ovalbumin (pOVA) [4] = test: Anti-OVA IgG titers, MTX given with pOVA+CpG s.c. (Example 18); conditions: MTX i.p. days 1-3, 7-9, 14-16; 25 μg pOVA + 2 μg CpG s.c. weekly, 5 injections; FIG. 3
Method: as §3, §4

CN(Cc1cnc2nc(N)nc(N)c2n1)c1ccc(C(=O)N[C@@H](CCC(=O)O)C(=O)O)cc1 [MTX, Methotrexate] was tested, and the anti-OVA antibody response (chicken Ovalbumin (pOVA) [1]) was “blocked the antibody response and only minimal titers were detected”, the anti-KLH response [2] was “robust anti-KLH response could be detected in all groups” and the “anti-KLH IgG antibody titers” value [3] was “blocked both responses and the animals showed low titers”. The “anti-OVA IgG antibody titers” value (chicken Ovalbumin (pOVA) [4]) was “blocked both responses and the animals showed low titers”.
